Source: ChEMBL document CHEMBL1201862, “PubChem BioAssay data set” (2004)
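Each compound was tested at five concentrations against cells in 96-well plates for 48 hours. GI50: concentration for 50% inhibition of growth.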 Activity calls are given as the source filed them. Rule as the data show it: active = GI50 up to about 1.1 µM and inactive = higher.

Tests used:
Assay in all cases: NCI tumour cell line growth inhibition, 48 h
SNB-19 = tested on: SNB-19
SK-MEL-5 = tested on: SK-MEL-5
MOLT-4 = tested on: MOLT-4
NCI-H23 = tested on: NCI-H23
COLO 205 = tested on: COLO 205
U-251 = tested on: U-251
KM12 = tested on: KM12
OVCAR-3 = tested on: OVCAR-3
A549 = tested on: A549
OVCAR-4 = tested on: OVCAR-4
MDA-MB-231 = tested on: MDA-MB-231
NCI-H522 = tested on: NCI-H522
HCC 2998 = tested on: HCC 2998
UACC-62 = tested on: UACC-62
SK-OV-3 = tested on: SK-OV-3
HCT-116 = tested on: HCT-116
MDA-N = tested on: MDA-N
Hs-578T = tested on: Hs-578T
CAKI-1 = tested on: CAKI-1
BT-549 = tested on: BT-549

Row | Compound | GI50 (SNB-19) | GI50 (SK-MEL-5) | GI50 (MOLT-4) | GI50 (NCI-H23) | GI50 (COLO 205) | GI50 (U-251) | GI50 (KM12) | GI50 (OVCAR-3) | GI50 (A549) | GI50 (OVCAR-4) | GI50 (MDA-MB-231) | GI50 (NCI-H522) | GI50 (HCC 2998) | GI50 (UACC-62) | GI50 (SK-OV-3) | GI50 (HCT-116) | GI50 (MDA-N) | GI50 (Hs-578T) | GI50 (CAKI-1) | GI50 (BT-549)
1 | CC1=NC(C)(C)N(O)C1(C)C | > 100 µM (inactive) | > 100 µM (inactive) | > 100 µM (inactive) | > 100 µM (inactive) | > 100 µM (inactive) | > 100 µM (inactive) | > 100 µM (inactive) | > 100 µM (inactive) | > 100 µM (inactive) | > 100 µM (inactive) | > 100 µM (inactive) | > 100 µM (inactive) | > 100 µM (inactive) | > 100 µM (inactive) | > 100 µM (inactive) | > 100 µM (inactive) | > 100 µM (inactive) |  |  | 
2 | CC(=O)OCC1OC(n2c3c(c(-c4ccc(Cl)cc4)c(C#N)c2=S)CCCC3)C(OC(C)=O)C(OC(C)=O)C1OC(C)=O (centres undefined) | 41.8 µM (inactive) | 16.7 µM (inactive) | 25.1 µM (inactive) | 46.5 µM (inactive) | 35.2 µM (inactive) | 88.9 µM (inactive) | 71.4 µM (inactive) | 21.7 µM (inactive) | 36.1 µM (inactive) | 25.5 µM (inactive) | > 100 µM (inactive) | 40.7 µM (inactive) | > 100 µM (inactive) | 23.3 µM (inactive) | 75.2 µM (inactive) | 33.3 µM (inactive) | 42.8 µM (inactive) |  |  | 
3 | COC(=O)C(C)(C)[C@@H]1OC(=O)N(S(=O)(=O)c2c(C)cc(C)cc2C)[C@H]1C(C)C | > 100 µM (inactive) | 41.8 µM (inactive) | 40 µM (inactive) | 46.8 µM (inactive) | 27 µM (inactive) | > 100 µM (inactive) | 91.4 µM (inactive) | 89.9 µM (inactive) | 85.7 µM (inactive) | 98.2 µM (inactive) | > 100 µM (inactive) | > 100 µM (inactive) | > 100 µM (inactive) | > 100 µM (inactive) | > 100 µM (inactive) | 52.8 µM (inactive) | > 100 µM (inactive) | 43 µM (inactive) |  | 
4 | COc1ccc(CCc2ccc(O)c(C(=O)O)c2)cc1OC | > 100 µM (inactive) | 98.9 µM (inactive) | 59.2 µM (inactive) | > 100 µM (inactive) | > 100 µM (inactive) | > 100 µM (inactive) | > 100 µM (inactive) | > 100 µM (inactive) | > 100 µM (inactive) | > 100 µM (inactive) | 57.8 µM (inactive) | > 100 µM (inactive) | > 100 µM (inactive) | > 100 µM (inactive) | > 100 µM (inactive) | 65.5 µM (inactive) | > 100 µM (inactive) | > 100 µM (inactive) | 32.4 µM (inactive) | 
5 | CC(C)(C)OC(=O)N[C@H]1CCN(C2CCCCC2)C1=O | > 100 µM (inactive) | > 100 µM (inactive) | > 100 µM (inactive) | > 100 µM (inactive) | > 100 µM (inactive) | > 100 µM (inactive) |  |  | > 100 µM (inactive) |  | > 100 µM (inactive) |  | > 100 µM (inactive) | > 100 µM (inactive) | > 100 µM (inactive) | > 100 µM (inactive) | > 100 µM (inactive) | > 100 µM (inactive) |  | 
6 | CCCCCCCCOCC1S(=O)(=O)OCCOS1(=O)=O | > 100 µM (inactive) | > 100 µM (inactive) | > 100 µM (inactive) | > 100 µM (inactive) | > 100 µM (inactive) | > 100 µM (inactive) |  | > 100 µM (inactive) | > 100 µM (inactive) | > 100 µM (inactive) | > 100 µM (inactive) | > 100 µM (inactive) | > 100 µM (inactive) | > 100 µM (inactive) | > 100 µM (inactive) | > 100 µM (inactive) | > 100 µM (inactive) | > 100 µM (inactive) | > 100 µM (inactive) | 
7 | OC1(CCc2ccccc2)COC(C(F)(F)F)(C(F)(F)F)C1 (centres undefined) | > 100 µM (inactive) | > 100 µM (inactive) | > 100 µM (inactive) | > 100 µM (inactive) | > 100 µM (inactive) | > 100 µM (inactive) | > 100 µM (inactive) | > 100 µM (inactive) | > 100 µM (inactive) | > 100 µM (inactive) | > 100 µM (inactive) | > 100 µM (inactive) | > 100 µM (inactive) | > 100 µM (inactive) | > 100 µM (inactive) | > 100 µM (inactive) | > 100 µM (inactive) | > 100 µM (inactive) | > 100 µM (inactive) | 
8 | COc1cc(OC)c2c(C)cc(=O)oc2c1 | > 100 µM (inactive) | > 100 µM (inactive) | 82.6 µM (inactive) | 64.4 µM (inactive) | 54.1 µM (inactive) | 84.7 µM (inactive) | 54.2 µM (inactive) | > 100 µM (inactive) | 55.7 µM (inactive) | > 100 µM (inactive) | 70.3 µM (inactive) |  |  | 96.4 µM (inactive) | > 100 µM (inactive) | 43.1 µM (inactive) | > 100 µM (inactive) | 61.1 µM (inactive) |  | 
9 | O=C1c2ccccc2C(=O)c2nc3ccc(Cl)cc3cc21 | > 100 µM (inactive) | > 100 µM (inactive) | > 100 µM (inactive) | > 100 µM (inactive) | > 100 µM (inactive) | > 100 µM (inactive) | > 100 µM (inactive) | > 100 µM (inactive) | > 100 µM (inactive) | > 100 µM (inactive) |  | > 100 µM (inactive) | > 100 µM (inactive) | > 100 µM (inactive) | > 100 µM (inactive) | > 100 µM (inactive) |  |  | > 100 µM (inactive) | 
10 | CC(=O)c1ccc2c(c1)CC1(C2)Cc2cc3c(cc2C1=O)CCC3 (centres undefined) | 58.9 µM (inactive) | 10.3 µM (inactive) | 4.28 µM (inactive) | 21.5 µM (inactive) | 14.9 µM (inactive) | 30.3 µM (inactive) | 17.5 µM (inactive) | 16.1 µM (inactive) | 20.9 µM (inactive) | 15.1 µM (inactive) | 20.6 µM (inactive) | 22.7 µM (inactive) | 18.6 µM (inactive) |  | 33.6 µM (inactive) | 17.5 µM (inactive) | 14.4 µM (inactive) | 27.6 µM (inactive) | 12.9 µM (inactive) | 
11 | Clc1ccc(/N=C/c2cc3cc(Br)ccc3nc2Cl)cc1 |  | 6.59 µM (inactive) | 13.5 µM (inactive) | > 50 µM (inactive) | > 50 µM (inactive) |  | 20 µM (inactive) |  |  | 5.12 µM (inactive) |  | 15.1 µM (inactive) | 32.3 µM (inactive) |  |  | 12 µM (inactive) | 11.2 µM (inactive) |  | 1.95 µM (inactive) | > 50 µM (inactive)
12 | COc1ccc(/C=C2\Sc3nnc(-c4ccccc4)n3N=C2c2cc(F)c(Cl)cc2Cl)cc1OC |  | > 100 µM (inactive) | 0.948 µM (active) | 51.2 µM (inactive) |  | > 100 µM (inactive) | 26.7 µM (inactive) | > 100 µM (inactive) |  | 18.2 µM (inactive) | 59.2 µM (inactive) | 12.6 µM (inactive) | 14.3 µM (inactive) |  | > 100 µM (inactive) | 6.24 µM (inactive) | 23.1 µM (inactive) | 20.6 µM (inactive) | 31 µM (inactive) | 
